# Results reported in US20210378926A1, “A TOPICAL COMPOSITION” (priority 2018, published 2021).
# System: S. hominis (ATCC 27844)
# Assay: Malodor Assay (H2S production, lead acetate paper blackening)
# Assay type: cell-based
# Settings: S. hominis culture in TSB with 0.1% L-cysteine-HCl, 96 well plate, 37° C. for about 16 hours; blackening of lead acetate paper scored 0 to 10 versus control (completely black); ingredient amounts in ppm as per Table 1
# Protocol: The efficacy of different ingredients and combinations were tried using the Malodor Assay protocol with S. hominis (ATCC 27844) as described below:
# The malodour assay was done in a 96 well plate (Nunc™, ThermoFisher). First, a lead acetate paper was prepared as follows. A Whatman™ (No. 1) filter paper (150 mm, Cat No. 1001-150) was taken and cut to match the top cross-sectional dimension of the 96 well plate. 1% Lead acetate (Hi Media, RM 757) solution was prepared in distilled water and the Whatman™ filter paper was soaked in the prepared lead acetate solution. The excess solution from the filter paper was drained and allowed to dry in a Laminar Air Flow for 1 hour. After drying, the filter paper was wrapped in an Aluminium foil and autoclaved at 121° C. for about 20 minutes. This lead acetate paper was used for the assay to capture the malodour generation at the later stage.
# A TSB broth solution was prepared by adding 0.1% L-cysteine-HCl (Sigma, C1276) into TSB (Bacto, 211825, 30 g/L) and autoclaved. After that, the 96 well plate was taken followed by addition of 180 μL/well of the above prepared TSB solution into the wells. Then 20 μL/well of S. hominis culture ([…]) was added to the wells. Different ingredient and/or mix of ingredients as per following Table 1 were added into the wells along with a control (only distilled water and bacteria) as per the required concentration (as mentioned in Table 1). Finally, the lead acetate paper that was prepared previously was placed on the wells of the 96-well plate and the lid was closed. This plate was then incubated in an incubator (LABTOP, bacteriological incubator) at 37° C. for about 16 hours. The lid of the plate was opened after the incubation and observed the lead acetate paper for any visual change in colour. […] The results and the effect of actives were compared with the control (completely black).
# The results of these experiments are expressed in terms of “% reduction” in H2S production which is determined from the blackening of the spot as explained above. Each spot with different test samples has been compared with the control (completely black) sample. It was then rated on a scale of 0 to 10 (10 being completely black as like control and 0 is no blackening). From the score the percentage reduction was evaluated e.g. if the blackening of any sample is as dark as control then the score given was “8-10” and accordingly % reduction is <20%.
row,SMILES,% reduction in H2S production
1,"C=CCc1ccc(O)c(-c2ccc(O)c(CC=C)c2)c1 [C, honokiol]",20-40%
2,"C=CCc1ccc(O)c(-c2cc(CC=C)ccc2O)c1 [D, magnolol]",<20%
3,"O=S(=O)([O-])[O-].[Fe+2] [G, FeSO4]",<20%
4,"O=S(=O)([O-])[O-].[Cu+2] [J, CuSO4]",<20%
5,"O=S(=O)([O-])[O-].[Cu+2] [K, CuSO4]",20-40%
